Here are results for 2 molecules from PMC5866846 (Archives of Toxicology, 2017).

In series [1] the test system is CYP2B6. In words: CYP2B6 activity in upcyte hepatocytes after treatment (probe substrate cocktail). The following applies: phenobarbital 2 mM, 72 h, both cell lines. Here is the method: (§1) Cells were cultivated in hepatocyte culture medium at 37 °C and 5 °% CO2 in a humidified incubator. Before starting experiments, cells were cultivated in hepatocyte culture medium containing 0.5% (v/v) DMSO (Preculture medium) for 5 days (density of 0.8 × 10^4 cells/cm^2) and were subcultivated in high-performance medium containing 0.1% (v/v) DMSO (Metabolism conditioning medium) for 3–5 days (density of 1.6 × 10^5 cells/cm^2, confluence). The medium was replaced every 2–3 days.
(§2) In HLM and supersome™ incubations the formation rate is given as nmol µg^−1 min^−1 and fmol pmol^−1 min^−1, respectively, and was calculated as the mean ± SD. […] The intrinsic Clearance (Clint) was given as Vmax/Km ratio. […] Activity of CYP enzymes in induction assays is given as the fold-change (mean ± SD) compared to the corresponding DMSO-treated control. […] Gene expression patterns of treated cells are given as fold-change compared to the corresponding DMSO-treated control samples, as described above. […] In induction and inhibition experiments corresponding EC50 and IC50 values were calculated by nonlinear regression. In all experiments a level of probability (p) ≤ 0.05 for statistical testing was considered significant.
(§3) As control 0.05 % DMSO was used. The basal CYP activity and induction of CYP activity compared to the DMSO control were measured via HPLC-ESI-MS/MS.

Series [2] deals with CYP3A4. In words: CYP3A4 activity in upcyte hepatocytes after treatment (probe substrate cocktail). Particulars: hepatocytes. As to the method:
as §1, §2, §3

The test system of series [3] is CYP3A4 gene expression. In words: CYP3A4 gene expression in upcyte hepatocytes (Fluidigm RT-PCR). Particulars: human, hepatocytes.
Source text: (§4) Total RNA was isolated from cells using the Direct-zol™ RNA MiniPrep kit (Zymo Research Corp., Irvine, California). cDNA was synthesized using TaqMan Reverse Transcription Reagents (Life technologies, Applera GmbH, Darmstadt, Germany) and the expression of 25 genes representative of phase I and phase II drug metabolism and transport was quantified by Fluidigm’s BioMark HD high-throughput quantitative chip platform (Fluidigm Corporation, San Francisco, USA). For relative gene expression analysis, the delta-delta-Ct (ΔΔCt) method was used: the Ct values of the target mRNA were first normalized to those of the endogenous control glyceraldehyde-3-phosphate dehydrogenase (GAPDH) followed by dividing values of experimental samples by their corresponding DMSO-treated controls to calculate the x-fold changes of mRNA expression.
as §2, §3

Series [4] has as its system SLC22A7 gene expression. In words: SLC22A7 gene expression in upcyte hepatocytes (Fluidigm RT-PCR). Type of series: cell-based, human. Particulars: phenobarbital 2 mM, 72 h.
Source text: as §4
(§5) In HLM and supersome™ incubations the formation rate is given as nmol µg^−1 min^−1 and fmol pmol^−1 min^−1, respectively, and was calculated as the mean ± SD. […] The intrinsic Clearance (Clint) was given as Vmax/Km ratio. […] In induction and inhibition experiments corresponding EC50 and IC50 values were calculated by nonlinear regression. […]
as §3

The subject of series [5] is CYP2C8 gene expression. In words: CYP2C8 gene expression in upcyte hepatocytes (Fluidigm RT-PCR). Particulars: phenobarbital 2 mM, 72 h; 'up to' = strongest decrease. It counts as cell-based, human. An excerpt:
(§6) Differences between induced and control samples were compared using Welch’s t-test (GraphPad Prism, version 5.04), when the fold-change was considered biologically relevant (1.5-fold increase or decrease in fold-changes) and corrected for multiple testing according to Bonferroni. […] An unpaired t-test assuming unequal variances was used for testing of differences in the expression patterns, when the fold-change was considered biologically relevant (1.5-fold increase or decrease in fold-changes) and corrected using Bonferroni adjustments.
(§7) As control 0.05 % DMSO was used.

The test system of series [6] is CYP2C19 gene expression. In words: CYP2C19 gene expression in upcyte hepatocytes (Fluidigm RT-PCR). It counts as cell-based, human. Particulars: phenobarbital 2 mM, 72 h.
Source text: as §6, §7

Series [7] relates to CYP2E1 gene expression. In words: CYP2E1 gene expression in upcyte hepatocytes (Fluidigm RT-PCR). It counts as cell-based, human. Particulars: phenobarbital 2 mM, 72 h; 'up to' = strongest decrease.
Source text: as §6, §7

Series [8] has as its system SULT1B1 gene expression. In words: SULT1B1 gene expression in upcyte hepatocytes (Fluidigm RT-PCR). It counts as cell-based, human. Particulars: phenobarbital 2 mM, 72 h; 'up to' = strongest decrease.
Series [9] has as its system UGT1A1 gene expression. In words: UGT1A1 gene expression in upcyte hepatocytes (Fluidigm RT-PCR). It counts as cell-based, human. The following applies: phenobarbital 2 mM, 72 h, both strains.
Source text: as §4, §5, §3

For series [10], the system named is SLCO1B1 gene expression. In words: SLCO1B1 gene expression in upcyte hepatocytes (Fluidigm RT-PCR). It counts as cell-based, human. Particulars: phenobarbital 2 mM, 72 h.
Source text: as §4, §5, §3

Series [11] deals with NAT1 gene expression. In words: NAT1 gene expression in upcyte hepatocytes (Fluidigm RT-PCR). It counts as cell-based, human. Particulars: phenobarbital 2 mM, 72 h; 'up to' = strongest decrease.
The test system of series [12] is CYP3A4. The following applies: hepatocytes.
Series [13] concerns GSTA2 gene expression. In words: GSTA2 gene expression in upcyte hepatocytes (Fluidigm RT-PCR). It counts as cell-based, human. Particulars: rifampicin 30 µM, 72 h. An excerpt:
[…]. […] […].
[…]. As control 0.05 % DMSO was used.

The subject of series [14] is ABCB1 gene expression. In words: ABCB1 gene expression in upcyte hepatocytes (Fluidigm RT-PCR). Type of series: cell-based, human. Particulars: rifampicin 30 µM, 72 h.
Source text: as §4, §5, §3

Turning to `CCC1(c2ccccc2)C(=O)NC(=O)NC1=O` [PB, phenobarbital], the “induction of CYP2B6 activity” value in series [1] was “induced”. The “induction of CYP3A4 activity” value in series [2] was “induced”. The “CYP3A4 gene expression, induction” value in series [3] is at most 9 fold. Moreover, the SLC22A7 gene expression entry in series [4] is given as “down regulated”. Besides, the “CYP2C8 gene expression, decreased to x-fold of control” value in [5] is reported as “up to 0.3 fold”. Besides, the “CYP2C19 gene expression, induction” value in series [6] was “up to 1.5 fold”. Also, the “CYP2E1 gene expression, decreased to x-fold of control” value in series [7] was at most 0.2 fold. The “SULT1B1 gene expression, down regulated to x-fold of control” value in series [8] is reported as “up to 0.5 fold”. In [9], the “UGT1A1 gene expression, induction” value is given as 1.8 fold. In addition, in [10], the “SLCO1B1 gene expression, induction” value is “up to 2.9 fold”. Moreover, in [11], the “NAT1 gene expression, down regulated to x-fold of control” value is listed as “up to 0.5 fold”. For the same molecule, the “protein expression of CYP3A4 (Western blot)” value in series [12] is given as “induced”.

Turning to `CO[C@H]1/C=C/O[C@@]2(C)Oc3c(C)c(O)c4c(O)c(c(/C=N/N5CCN(C)CC5)c(O)c4c3C2=O)NC(=O)/C(C)=C\C=C\[C@H](C)[C@H](O)[C@@H](C)[C@@H](O)[C@@H](C)[C@H](OC(C)=O)[C@@H]1C` [Rifa, rifampicin], the “GSTA2 gene expression, induction” value in series [13] came out at 2.6 fold. The “ABCB1 gene expression, induction” value in series [14] was 1.7 fold.
